Values quoted from earlier work as cited in patent US20240299291A1, “OPHTHALMIC PREPARATION ADMINISTERED BY EYE DROPS AND USED FOR PREVENTING AND TREATING DRY MACULAR DEGENERATION AND RETINAL LIGHT DAMAGE” (CHENGDU RUIMU BIOPHARMACEUTICALS CO., LTD., priority 2021, published 2024).

Legend:
[1] = tested on: AMD; open-angle glaucoma
[2] = tested on: AMPK (adenosine mono-phosphate activated protein kinase); details: mice
[3] = tested on: age-related macular degeneration (AMD); details: oral metformin
[4] = tested on: retinal light damage; details: injection into the vitreous cavity of mice, up to 500 mg/kg/day, 7 days, before light damage

AMPK activation in the retina of eyes [2]: locally activates AMPK
SMILES: CN(C)C(=N)N=C(N)N [metformin]
Reduction of the incidence of open-angle glaucoma versus patients who did not take metformin ([1]; high-dose group (>1110 g metformin for 2 years)): 25%
Effect on the occurrence or development of AMD ([1]; oral metformin): may have therapeutic effect on the occurrence or development of AMD
Risk of AMD in patients with type 2 diabetes versus patients who did not take metformin [3]: significantly lower
Prevention of light damage [4]: almost completely prevent the light damage
